From US11053204B2, “Pyrimidinyloxy benzene derivatives as herbicides” (FMC Corporation, priority 2015, dated 2021)

Columns and labels:
Type in all cases: in vivo
[1] = test system: wheat (Triticum aestivum); assay: Test A postemergence, visual injury rating
Method in brief: (§1)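 Compounds in non-phytotoxic solvent with surfactant applied as soil spray preemergence, or postemergence to plants 2-10 cm at one- to two-leaf stage, in loam/sand. After approximately 10 days in greenhouse, injury rated visually versus untreated controls, 0 (no effect) to 100 (complete control).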

[2] = test system: barnyardgrass (Echinochloa crus-galli); assay: Test A postemergence, visual injury rating; conditions: 0 to 100 scale, 0 is no effect, 100 is complete control, approximately 10 days
Method in brief: as §1

[3] = test system: pigweed (Amaranthus retroflexus); assay: Test A postemergence, visual injury rating
Method in brief: as §1

[4] = test system: kochia (Kochia scoparia); assay: Test A postemergence, visual injury rating
Method in brief: as §1

[5] = test system: galium (catchweed bedstraw, Galium aparine); assay: Test A postemergence, visual injury rating
Method in brief: as §1

[6] = test system: giant foxtail (Setaria faberii); assay: Test A postemergence, visual injury rating
Method in brief: as §1

[7] = test system: blackgrass (Alopecurus myosuroides); assay: Test A postemergence, visual injury rating
Method in brief: as §1

[8] = test system: corn (Zea mays); assay: Test A postemergence, visual injury rating
Method in brief: as §1

[9] = test system: Italian ryegrass (Lolium multiflorum); assay: Test A postemergence, visual injury rating
Method in brief: as §1

[10] = test system: ragweed (common ragweed, Ambrosia elatior); assay: Test A postemergence, visual injury rating
Method in brief: as §1

[11] = test system: waterhemp (common waterhemp, Amaranthus rudis); assay: Test C postemergence, plant response rating; conditions: for Waterhemp plant response rating: 125 g ai/ha, scale 0 to 100 (0 no effect, 100 complete control)
Method in brief: (§2)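 Preemergence: seeds sown in loam–sand blend or silt loam and sprayed with test chemicals in a non-phytotoxic surfactant-containing solvent. Postemergence: potted plants at 2–18 cm (1–4-leaf stage) sprayed with the same formulation. After 13–15 d in greenhouse, visual rating versus controls on 0 (no effect) to 100 (complete control) scale.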

[12] = test system: galium (catchweed bedstraw, Galium aparine); assay: Test C postemergence, plant response rating
Method in brief: as §2

[13] = test system: velvetleaf (Abutilon theophrasti); assay: Test C postemergence, plant response rating
Method in brief: as §2

[14] = test system: ragweed (common ragweed, Ambrosia elatior); assay: Test C postemergence, plant response rating
Method in brief: as §2

[15] = test system: barnyardgrass (Echinochloa crus-galli); assay: Test C preemergence, plant response rating; conditions: Preemergence
[16] = test system: barnyardgrass (Echinochloa crus-galli); assay: Test B flooded paddy test, plant response rating; conditions: 250 g ai/ha, Flood, scale of 0 to 100 where 0 is no effect and 100 is complete control, 13 to 15 days
Method in brief: (§3)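 Ratings were visual and made relative to untreated controls after 13 to 15 greenhouse days.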

[17] = test system: ducksalad (Heteranthera limosa); assay: Test B flooded paddy test, plant response rating; conditions: 250 g ai/ha, Flood, scale of 0 to 100 where 0 is no effect and 100 is complete control, 13 to 15 days
Method in brief: as §3

[18] = test system: rice (Oryza sativa); assay: Test B flooded paddy test, plant response rating; conditions: 250 g ai/ha, Flood, scale of 0 to 100 where 0 is no effect and 100 is complete control, 13 to 15 days
Method in brief: as §3

[19] = test system: sedge, umbrella (small-flower umbrella sedge, Cyperus difformis); assay: Test B flooded paddy test, plant response rating; conditions: 250 g ai/ha, Flood, scale of 0 to 100 where 0 is no effect and 100 is complete control, 13 to 15 days
Method in brief: as §3

[20] = 31 g ai/ha, 0 to 100 scale, 0 is no effect, 100 is complete control, approximately 10 days
[21] = 125 g ai/ha, 0 to 100 scale, 0 is no effect, 100 is complete control, approximately 10 days
[22] = 31 g ai/ha, 0 to 100 scale (0 no effect, 100 complete control)
[23] = 62 g ai/ha, scale 0 to 100 (0 no effect, 100 complete control)
[24] = 125 g ai/ha, scale 0 to 100 (0 no effect, 100 complete control)

SMILES: O=C(CCC(F)(F)F)c1c(Cl)cccc1Oc1ncc(Cl)cn1 [Compound 107, 1-[2-chloro-6-[(5-chloro-2-pyrimidinyl)oxy]phenyl]-4,4,4-trifluoro-1-butanone]
- Wheat plant response rating [1, 20]: 0
- Wheat plant response rating [1, 21]: 30
- Barnyardgrass plant response rating ([2]; 31 g ai/ha): 40
- Barnyardgrass plant response rating ([2]; 125 g ai/ha): 90
- Pigweed plant response rating [3, 20]: 100
- Pigweed plant response rating [3, 21]: 100
- Kochia plant response rating [4, 20]: 90
- Kochia plant response rating [4, 21]: 90
- Galium plant response rating [5, 20]: 90
- Galium plant response rating [5, 21]: 90
- Foxtail, Giant plant response rating [6, 20]: 70
- Foxtail, Giant plant response rating [6, 21]: 90
- Blackgrass plant response rating [7, 20]: 50
- Blackgrass plant response rating [7, 21]: 90
- Corn plant response rating [8, 20]: 30
- Corn plant response rating [8, 21]: 60
- Ryegrass, Italian plant response rating [9, 20]: 20
- Ryegrass, Italian plant response rating [9, 21]: 80
- Ragweed plant response rating [10, 20]: 20
- Ragweed plant response rating [10, 21]: 30
- Plant response rating, Waterhemp ([11]; 16 g ai/ha, scale of 0 to 100): 95
- Plant response rating, Waterhemp ([11]; 31 g ai/ha, scale 0 to 100): 98
- Waterhemp plant response rating [11]: 100
- pest or weed control at 16 g/ha ([12]; Galium, post-emergence, 16 g ai/ha, scale of 0 to 100): 75%
- pest or weed control at 31 g/ha ([12]; Galium, post-emergence, 31 g ai/ha, scale 0 to 100): 80%
- pest or weed control at 62 g/ha ([12]; Galium, post-emergence, 62 g ai/ha, scale 0 to 100 (0 no effect, 100 complete control)): 90%
- pest or weed control at 125 g/ha ([12]; Galium, post-emergence, 125 g ai/ha, scale 0 to 100 (0 no effect, 100 complete control)): 95%
- pest or weed control at 16 g/ha ([13]; Abutilon theophrasti, post-emergence, 16 g ai/ha, scale of 0 to 100): 60%
- pest or weed control at 31 g/ha ([13]; Abutilon theophrasti, post-emergence, 31 g ai/ha, scale 0 to 100): 65%
- pest or weed control at 125 g/ha ([13]; Abutilon theophrasti, post-emergence, 125 g ai/ha, scale 0 to 100 (0 no effect, 100 complete control)): 90%
- pest or weed control at 62 g/ha ([13]; Abutilon theophrasti, post-emergence, rate not given, scale 0 to 100, read-out: Plant response rating, Velvetleaf): 75%
- pest or weed control at 16 g/ha ([14]; Ambrosia artemisiifolia, post-emergence, 16 g ai/ha, scale of 0 to 100): 25%
- pest or weed control at 31 g/ha ([14]; Ambrosia artemisiifolia, post-emergence, 31 g ai/ha, scale 0 to 100): 35%
- pest or weed control at 62 g/ha ([14]; Ambrosia artemisiifolia, post-emergence, 62 g ai/ha, scale 0 to 100 (0 no effect, 100 complete control)): 35%
- pest or weed control at 125 g/ha ([14]; Ambrosia artemisiifolia, post-emergence, 125 g ai/ha, scale 0 to 100 (0 no effect, 100 complete control)): 45%
- pest or weed control at 125 g/ha ([15]; Echinochloa crus-galli, pre-emergence, 125 g ai/ha, scale of 0 to 100): 100%
- pest or weed control at 16 g/ha ([15]; Echinochloa crus-galli, pre-emergence, 16 g ai/ha, scale 0 to 100): 65%
- pest or weed control at 31 g/ha ([15]; Echinochloa crus-galli, pre-emergence, 31 g ai/ha, scale 0 to 100): 85%
- pest or weed control at 62 g/ha ([15]; Echinochloa crus-galli, pre-emergence, 62 g ai/ha, scale 0 to 100): 100%
- pest or weed control at 250 g/ha ([16]; Echinochloa crus-galli, 312 h): 50%
- pest or weed control at 250 g/ha ([17]; Heteranthera limosa, 312 h): 95%
- plant injury at 250 g/ha ([18]; Oryza sativa, 312 h): 35%
- pest or weed control at 250 g/ha ([19]; Cyperus difformis, 312 h): 95%

SMILES: FC(F)(F)CCCCc1c(Br)cccc1Oc1ncc(Cl)cn1 [Compound 138]
- Wheat plant response rating [1, 22]: 20
- Wheat plant response rating [1, 21]: 40
- Barnyardgrass plant response rating ([2]; 31 g ai/ha): 90
- Barnyardgrass plant response rating ([2]; 125 g ai/ha): 90
- Pigweed plant response rating [3, 22]: 100
- Pigweed plant response rating [3, 21]: 100
- Kochia plant response rating [4, 22]: 90
- Kochia plant response rating [4, 21]: 100
- Galium plant response rating [5, 22]: 70
- Galium plant response rating [5, 21]: 100
- Foxtail, Giant plant response rating [6, 22]: 90
- Foxtail, Giant plant response rating [6, 21]: 90
- Blackgrass plant response rating [7, 22]: 40
- Blackgrass plant response rating [7, 21]: 90
- Corn plant response rating [8, 22]: 30
- Corn plant response rating [8, 21]: 60
- Ryegrass, Italian plant response rating [9, 22]: 30
- Ryegrass, Italian plant response rating [9, 21]: 100
- Ragweed plant response rating [10, 22]: 30
- Ragweed plant response rating [10, 21]: 60
- Plant response rating, Waterhemp ([11]; 16 g ai/ha, scale of 0 to 100): 98
- Plant response rating, Waterhemp ([11]; 31 g ai/ha, scale 0 to 100): 98
- Waterhemp plant response rating [11]: 100
- Plant response rating, Galium ([12]; 16 g ai/ha, scale of 0 to 100): 65
- Plant response rating, Galium ([12]; 31 g ai/ha, scale 0 to 100): 80
- Galium plant response rating [12, 23]: 80
- Galium plant response rating [12, 24]: 85
- Plant response rating, Velvetleaf ([13]; 16 g ai/ha, scale of 0 to 100): 10
- Plant response rating, Velvetleaf ([13]; 31 g ai/ha, scale 0 to 100): 35
- Velvetleaf plant response rating [13, 24]: 75
- Plant response rating, Ragweed ([14]; 16 g ai/ha, scale of 0 to 100): 0
- Plant response rating, Ragweed ([14]; 31 g ai/ha, scale 0 to 100): 30
- Ragweed plant response rating [14, 23]: 35
- Ragweed plant response rating [14, 24]: 75
- Plant response rating, Barnyardgrass ([15]; 125 g ai/ha, scale of 0 to 100): 95
- Plant response rating, Barnyardgrass ([15]; 16 g ai/ha, scale 0 to 100): 20
- Plant response rating, Barnyardgrass ([15]; 31 g ai/ha, scale 0 to 100): 40
- Plant response rating, Barnyardgrass ([15]; 62 g ai/ha, scale 0 to 100): 80
- Plant response rating, Barnyardgrass [16]: 50
- Plant response rating, Ducksalad [17]: 100
- Plant response rating, Rice [18]: 45
- Plant response rating, Sedge, Umbrella [19]: 85
